What was measured:
[1] = adults relative to children; cited from earlier work
[2] = molecular target: T1, OR2J2 (Homo sapiens, UniProt O76002); experiment: Olfactory receptor cAMP signaling in transfected HEK293T cells exposed to menthol; type: cell-based; conditions: 2J2, menthol 1 nM to 1 mM, cAMP production
T1 construct: expressed in transfected cells; host or cells: HEK293T
T1 sequence (O76002 1-312): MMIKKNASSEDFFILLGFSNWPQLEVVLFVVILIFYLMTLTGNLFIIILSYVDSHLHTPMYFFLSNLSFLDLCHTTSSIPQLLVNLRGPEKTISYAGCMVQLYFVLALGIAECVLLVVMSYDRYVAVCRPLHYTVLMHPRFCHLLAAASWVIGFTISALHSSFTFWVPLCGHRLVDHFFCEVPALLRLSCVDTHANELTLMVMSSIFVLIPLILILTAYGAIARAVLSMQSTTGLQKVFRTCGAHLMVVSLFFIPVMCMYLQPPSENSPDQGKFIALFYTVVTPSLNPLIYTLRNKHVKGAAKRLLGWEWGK
Experimental: (§1) When creating an age-related flavor profile for menthol, identification of the olfactory receptors that respond to menthol may be accomplished by transfecting human olfactory receptor cDNA sequences in HEK293T co-expressing accessory factors for odorant receptor expression (see, e.g., Saito, H., et al., Cell 119:679-691 (2004)). Transfected cells may then be exposed to serial dilutions of menthol from 1 nM to 1 mM in growth medium, and receptor signaling may be measured by cAMP production in the cell using a commercial assay.
(§2) Next, positive olfactory receptors may be identified by increased signaling when exposed to at least one menthol concentration compared to control cells that have not been transfected. In each case, an EC50 is defined for the receptor versus menthol. Olfactory receptors OR1G1, 8K3, 2W1, 2J2, 11H7P and 51E1 have been identified by this method as menthol-sensitive olfactory receptors.

[3] = molecular target: T2, OR2W1 (Homo sapiens, UniProt Q9Y3N9); experiment: as above; type: cell-based; conditions: 2W1, menthol 1 nM to 1 mM, cAMP production
T2 construct: expressed in transfected cells; host or cells: HEK293T
T2 sequence (Q9Y3N9 1-320): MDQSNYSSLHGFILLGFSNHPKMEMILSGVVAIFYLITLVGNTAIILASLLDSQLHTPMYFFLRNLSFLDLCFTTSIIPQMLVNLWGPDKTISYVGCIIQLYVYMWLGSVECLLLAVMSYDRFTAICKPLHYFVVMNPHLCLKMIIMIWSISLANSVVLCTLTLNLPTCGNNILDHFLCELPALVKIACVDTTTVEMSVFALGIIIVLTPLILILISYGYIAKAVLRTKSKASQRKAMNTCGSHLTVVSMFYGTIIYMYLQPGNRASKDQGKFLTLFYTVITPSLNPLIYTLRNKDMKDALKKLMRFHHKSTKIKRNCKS
Experimental: as §1, §2

[4] = molecular target: T3, OR11H7P (Homo sapiens, UniProt Q8NGC8); experiment: as above; type: cell-based; conditions: 11H7P, menthol 1 nM to 1 mM, cAMP production
T3 construct: expressed in transfected cells; host or cells: HEK293T
T3 sequence (Q8NGC8 1-314): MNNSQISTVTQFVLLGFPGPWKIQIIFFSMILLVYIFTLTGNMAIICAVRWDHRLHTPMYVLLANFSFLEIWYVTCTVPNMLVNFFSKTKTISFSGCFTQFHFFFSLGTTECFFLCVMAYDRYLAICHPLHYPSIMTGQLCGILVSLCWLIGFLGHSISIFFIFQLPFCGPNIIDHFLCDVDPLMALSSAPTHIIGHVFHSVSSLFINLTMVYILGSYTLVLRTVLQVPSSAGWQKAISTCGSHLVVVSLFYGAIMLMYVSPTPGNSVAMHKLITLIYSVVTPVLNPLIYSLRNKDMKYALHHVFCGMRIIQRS
Experimental: as §1, §2

[5] = molecular target: T4, OR1G1 (Homo sapiens, UniProt P47890); experiment: as above; type: cell-based; conditions: menthol 1 nM to 1 mM, cAMP production
T4 construct: expressed in transfected cells; host or cells: HEK293T
T4 sequence (P47890 1-313): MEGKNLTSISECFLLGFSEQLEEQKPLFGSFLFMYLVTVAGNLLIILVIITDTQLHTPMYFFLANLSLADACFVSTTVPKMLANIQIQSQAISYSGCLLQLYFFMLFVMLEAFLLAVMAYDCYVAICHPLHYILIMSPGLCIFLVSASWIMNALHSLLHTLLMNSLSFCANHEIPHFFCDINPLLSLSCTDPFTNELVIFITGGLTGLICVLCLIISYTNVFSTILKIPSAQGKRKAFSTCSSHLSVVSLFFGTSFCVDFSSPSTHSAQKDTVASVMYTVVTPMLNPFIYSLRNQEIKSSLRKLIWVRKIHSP
Experimental: as §1, §2

[6] = molecular target: T5, OR51E1 (Homo sapiens, UniProt Q8TCB6); experiment: as above; type: cell-based; conditions: 51E1, menthol 1 nM to 1 mM, cAMP production
T5 construct: expressed in transfected cells; host or cells: HEK293T
T5 sequence (Q8TCB6 1-318): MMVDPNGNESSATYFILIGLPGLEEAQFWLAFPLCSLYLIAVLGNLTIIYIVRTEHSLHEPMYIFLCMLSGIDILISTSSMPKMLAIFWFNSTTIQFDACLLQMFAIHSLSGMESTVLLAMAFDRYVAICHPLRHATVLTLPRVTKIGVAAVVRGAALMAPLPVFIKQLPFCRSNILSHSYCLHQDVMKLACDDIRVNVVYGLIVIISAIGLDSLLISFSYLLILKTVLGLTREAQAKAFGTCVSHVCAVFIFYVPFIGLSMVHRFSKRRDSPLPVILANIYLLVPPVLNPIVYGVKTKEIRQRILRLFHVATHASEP
Experimental: as §1, §2

[7] = molecular target: T6, OR8K3 (Homo sapiens, UniProt Q8NH51); experiment: as above; type: cell-based; conditions: 8K3, menthol 1 nM to 1 mM, cAMP production
T6 construct: expressed in transfected cells; host or cells: HEK293T
T6 sequence (Q8NH51 1-312): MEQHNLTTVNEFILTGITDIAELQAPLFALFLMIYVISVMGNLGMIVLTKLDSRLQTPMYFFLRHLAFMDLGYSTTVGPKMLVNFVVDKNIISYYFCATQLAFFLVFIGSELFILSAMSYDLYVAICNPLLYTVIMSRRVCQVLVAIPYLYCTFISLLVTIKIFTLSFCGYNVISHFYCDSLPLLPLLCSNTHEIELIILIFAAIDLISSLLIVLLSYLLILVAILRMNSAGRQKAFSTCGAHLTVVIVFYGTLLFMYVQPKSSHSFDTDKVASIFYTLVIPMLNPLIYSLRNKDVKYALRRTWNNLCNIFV
Experimental: as §1, §2

## CC1CCC(C(C)C)C(O)C1 (stereo not shown) [menthol]
[1]
  menthol concentration adults require to perceive the same level of intensity as children: approximately two
[2]
  receptor identified as menthol-sensitive (increased signaling vs non-transfected control cells): menthol-sensitive
[3]
  receptor identified as menthol-sensitive (increased signaling vs non-transfected control cells): menthol-sensitive
[4]
  receptor identified as menthol-sensitive (increased signaling vs non-transfected control cells): menthol-sensitive
[5]
  receptor identified as menthol-sensitive (increased signaling vs non-transfected control cells): menthol-sensitive
[6]
  receptor identified as menthol-sensitive (increased signaling vs non-transfected control cells): menthol-sensitive
[7]
  receptor identified as menthol-sensitive (increased signaling vs non-transfected control cells): menthol-sensitive

Reference: patent US20220110886A1, “OPTIMIZATION OF SCENT OR FLAVOR COMPOSITIONS” (Aromyx Corporation, priority 2019, published 2022)
